Experimental data taken from PubChem BioAssay AID248 (DTP/NCI, 2004).
Toxic doses and inconclusive results are not listed. No stated cut-off is given here; in the data, active means T/C of 150% or more; inactive means T/C below 125%.

Test system: L1210 leukemia ip in BDF1 mice, survival T/C
Assay: NCI In Vivo Anticancer Drug Screen. Data for tumor model L1210 Leukemia (intraperitoneal) in B6D2F1 (BDF1) mice
Details: endpoint: mean survival time, higher = longer survival
Procedure, shortened: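 Survival endpoint. Drug-treated group vs vehicle group, expressed as T divided by C. Tumor passaged by transplantation.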

[1] = dose: 100.0 mg/kg/injection, schedule: Q01DX001 (ip), vehicle: other
[2] = dose: 200.0 mg/kg/injection, schedule: Q01DX001 (ip), vehicle: other
[3] = dose: 400.0 mg/kg/injection, schedule: Q01DX001 (ip), vehicle: other
[4] = dose: 100.0 mg/kg/injection, schedule: Q01DX009 (ip), vehicle: saline with Tween-80
[5] = dose: 200.0 mg/kg/injection, schedule: Q01DX009 (ip), vehicle: saline with Tween-80
[6] = dose: 400.0 mg/kg/injection, schedule: Q01DX009 (ip), vehicle: saline with Tween-80
[7] = dose: 100.0 mg/kg/injection, schedule: Q04DX003 (ip), vehicle: Klucel (hydroxypropylcellulose) (HPC)
[8] = dose: 200.0 mg/kg/injection, schedule: Q04DX003 (ip), vehicle: Klucel (hydroxypropylcellulose) (HPC)
[9] = dose: 400.0 mg/kg/injection, schedule: Q04DX003 (ip), vehicle: Klucel (hydroxypropylcellulose) (HPC)
[10] = dose: 100.0 mg/kg/injection, schedule: Q01DX009 (ip), vehicle: Klucel (hydroxypropylcellulose) (HPC)
[11] = dose: 100.0 mg/kg/injection, schedule: Q04DX003 (ip), vehicle: saline with Tween-80
[12] = dose: 200.0 mg/kg/injection, schedule: Q04DX003 (ip), vehicle: saline with Tween-80
[13] = dose: 400.0 mg/kg/injection, schedule: Q04DX003 (ip), vehicle: saline with Tween-80
[14] = dose: 200.0 mg/kg/injection, schedule: Q01DX009 (ip), vehicle: Klucel (hydroxypropylcellulose) (HPC)
[15] = dose: 400.0 mg/kg/injection, schedule: Q01DX009 (ip), vehicle: Klucel (hydroxypropylcellulose) (HPC)

Measured: T/C

Cc1ccccc1N=Nc1c(O)n(-c2ccc(Cl)cc2)c(=S)n(-c2ccccc2)c1=O
inactive: dose: 75.0 mg/kg/injection, schedule: Q04DX003 (ip), vehicle: Klucel (hydroxypropylcellulose) (HPC) 100 % of control | dose: 150.0 mg/kg/injection, schedule: Q04DX003 (ip), vehicle: Klucel (hydroxypropylcellulose) (HPC) 96 % of control | dose: 300.0 mg/kg/injection, schedule: Q04DX003 (ip), vehicle: Klucel (hydroxypropylcellulose) (HPC) 107 % of control

COC(=O)[CH]([Hg][CH](C(=O)OC)C(=O)OC)C(=O)OC
inactive: dose: 3.12 mg/kg/injection, schedule: Q04DX002 (ip), vehicle: Klucel (hydroxypropylcellulose) (HPC) 88 % of control | dose: 6.25 mg/kg/injection, schedule: Q04DX002 (ip), vehicle: Klucel (hydroxypropylcellulose) (HPC) 98 % of control | dose: 12.5 mg/kg/injection, schedule: Q04DX002 (ip), vehicle: Klucel (hydroxypropylcellulose) (HPC) 91 % of control

NNC(=O)CCO
inactive: dose: 100.0 mg/kg/injection, schedule: Q01DX001 (ip), vehicle: saline 103 % of control | dose: 100.0 mg/kg/injection, schedule: Q01DX009 (ip), vehicle: saline 89 % of control | dose: 200.0 mg/kg/injection, schedule: Q01DX001 (ip), vehicle: saline 105 % of control | dose: 200.0 mg/kg/injection, schedule: Q01DX009 (ip), vehicle: saline 100 % of control | dose: 400.0 mg/kg/injection, schedule: Q01DX001 (ip), vehicle: saline 94 % of control | dose: 400.0 mg/kg/injection, schedule: Q01DX009 (ip), vehicle: saline 96 % of control

NC(CSCC(N)=NCC1C2CC3CC(C2)CC1C3)=NCC1C2CC3CC(C2)CC1C3 (stereo not drawn)
inactive: dose: 100.0 mg/kg/injection, schedule: Q04DX002 (ip), vehicle: Klucel (hydroxypropylcellulose) (HPC) 96 % of control

O=C1CCCCC1O (stereo not drawn)
inactive: [1] 116 % of control | [2] 103 % of control | [3] 95 % of control

Cc1ccc(S(=O)(=O)Nc2ccccc2)c(C(O)(c2ccccc2)c2ccccc2)c1
inactive: [4] 91 % of control | [5] 96 % of control | [6] 93 % of control

Cc1ccc(S(=O)(=O)N2CN(S(=O)(=O)c3ccc(C)cc3)CN(S(=O)(=O)c3ccc(C)cc3)C2)cc1
inactive: dose: 100.0 mg/kg/injection, schedule: Q04DX002 (ip), vehicle: saline with Tween-80 94 % of control | dose: 200.0 mg/kg/injection, schedule: Q04DX002 (ip), vehicle: saline with Tween-80 91 % of control | dose: 400.0 mg/kg/injection, schedule: Q04DX002 (ip), vehicle: saline with Tween-80 91 % of control

OCCSSSCCO
inactive: dose: 75.0 mg/kg/injection, schedule: Q01DX001 (ip), vehicle: other 105 % of control | dose: 150.0 mg/kg/injection, schedule: Q01DX001 (ip), vehicle: other 115 % of control

Nc1c(Br)cc([N+](=O)[O-])cc1Br
inactive: [7] 111 % of control | [8] 95 % of control | [9] 105 % of control

Clc1ccc(N2CCNCC2)cc1
inactive: dose: 75.0 mg/kg/injection, schedule: Q01DX001 (ip), vehicle: saline 101 % of control

N#Cc1cnn(CCO)c1N
inactive: dose: 100.0 mg/kg/injection, schedule: Q01DX001 (ip), vehicle: carboxymethylcellulose (CMC) 103 % of control | dose: 100.0 mg/kg/injection, schedule: Q01DX009 (ip), vehicle: water 107 % of control | dose: 100.0 mg/kg/injection, schedule: Q04DX003 (ip), vehicle: water 115 % of control | dose: 200.0 mg/kg/injection, schedule: Q01DX001 (ip), vehicle: carboxymethylcellulose (CMC) 97 % of control | dose: 200.0 mg/kg/injection, schedule: Q01DX009 (ip), vehicle: water 101 % of control | dose: 200.0 mg/kg/injection, schedule: Q04DX003 (ip), vehicle: water 110 % of control | dose: 400.0 mg/kg/injection, schedule: Q01DX001 (ip), vehicle: carboxymethylcellulose (CMC) 100 % of control | dose: 400.0 mg/kg/injection, schedule: Q01DX009 (ip), vehicle: water 114 % of control | dose: 400.0 mg/kg/injection, schedule: Q04DX003 (ip), vehicle: water 104 % of control

CC1(C)C2CC3C(=CCC4C(=O)C=CC(=O)C43)C1C2 (stereo not drawn)
inactive: [7] 95 % of control | [8] 93 % of control | [9] 95 % of control

NC(Cc1ncc[nH]1)C(=O)O (stereo not drawn)
inactive: dose: 100.0 mg/kg/injection, schedule: Q04DX002 (ip), vehicle: other 104 % of control | dose: 200.0 mg/kg/injection, schedule: Q04DX002 (ip), vehicle: other 96 % of control | dose: 400.0 mg/kg/injection, schedule: Q04DX002 (ip), vehicle: other 119 % of control

Cn1c(=O)c2[nH]c(-c3cccs3)nc2n(C)c1=O
inactive: dose: 50.0 mg/kg/injection, schedule: Q01DX001 (ip), vehicle: other 101 % of control | [1] 90 % of control | [2] 97 % of control | [3] 92 % of control

COC(=O)c1ccc(SSc2ccc(C(=O)OC)cc2[N+](=O)[O-])c([N+](=O)[O-])c1
inactive: [4] 103 % of control | [5] 102 % of control | [6] 92 % of control

CCN(CC)CCNc1ncnc2c1cnn2-c1ccc(Cl)cc1
inactive: dose: 25.0 mg/kg/injection, schedule: Q01DX009 (ip), vehicle: Klucel (hydroxypropylcellulose) (HPC) 95 % of control | dose: 50.0 mg/kg/injection, schedule: Q01DX009 (ip), vehicle: Klucel (hydroxypropylcellulose) (HPC) 95 % of control | [10] 92 % of control | [4] 101 % of control | [7] 95 % of control | [11] 103 % of control | dose: 150.0 mg/kg/injection, schedule: Q01DX009 (ip), vehicle: Klucel (hydroxypropylcellulose) (HPC) 101 % of control | [5] 95 % of control | [8] 95 % of control | [12] 94 % of control | dose: 225.0 mg/kg/injection, schedule: Q01DX009 (ip), vehicle: Klucel (hydroxypropylcellulose) (HPC) 93 % of control | dose: 335.0 mg/kg/injection, schedule: Q01DX009 (ip), vehicle: Klucel (hydroxypropylcellulose) (HPC) 87 % of control | [9] 95 % of control | [13] 103 % of control

ClC(Cl)(Cl)C1OCOC(C(Cl)(Cl)Cl)OCO1 (stereo not drawn)
inactive: [10] 94 % of control | [7] 98 % of control | [14] 93 % of control | [8] 98 % of control | [15] 94 % of control | [9] 102 % of control

O=S(=O)(CCCCl)Cc1ccccc1
inactive: dose: 100.0 mg/kg/injection, schedule: Q01DX009 (ip), vehicle: other 100 % of control | dose: 100.0 mg/kg/injection, schedule: Q04DX003 (ip), vehicle: other 110 % of control | dose: 200.0 mg/kg/injection, schedule: Q01DX009 (ip), vehicle: other 98 % of control | dose: 200.0 mg/kg/injection, schedule: Q04DX003 (ip), vehicle: other 101 % of control | dose: 400.0 mg/kg/injection, schedule: Q01DX009 (ip), vehicle: other 102 % of control | dose: 400.0 mg/kg/injection, schedule: Q04DX003 (ip), vehicle: other 107 % of control

S=c1[nH]cc2cnccn12
inactive: [4] 103 % of control | [11] 98 % of control | [5] 100 % of control | [12] 100 % of control | [13] 89 % of control

O=C1CCC(c2ccccc2)c2ccccc21 (stereo not drawn)
inactive: dose: 100.0 mg/kg/injection, schedule: Q01DX001 (ip), vehicle: Klucel (hydroxypropylcellulose) (HPC) 99 % of control | dose: 200.0 mg/kg/injection, schedule: Q01DX001 (ip), vehicle: Klucel (hydroxypropylcellulose) (HPC) 97 % of control | dose: 400.0 mg/kg/injection, schedule: Q01DX001 (ip), vehicle: Klucel (hydroxypropylcellulose) (HPC) 100 % of control

O=C(Nc1cccc(C(F)(F)F)c1)C(O)C(O)C(O)C(O)CO (stereo not drawn)
inactive: dose: 100.0 mg/kg/injection, schedule: Q04DX003 (ip), vehicle: saline 91 % of control | dose: 200.0 mg/kg/injection, schedule: Q04DX003 (ip), vehicle: saline 94 % of control | dose: 400.0 mg/kg/injection, schedule: Q04DX003 (ip), vehicle: saline 91 % of control

CCOC(=O)c1c(C)[nH]c2ccc(O)cc12
inactive: [10] 92 % of control | [7] 95 % of control | [14] 104 % of control | [8] 100 % of control | [15] 114 % of control | [9] 100 % of control
